# Laboratory results published in patent US6586420B1, “Quinolinecarboxylic acid derivative or its salt” (Wakunaga Pharmaceutical Co., Ltd., priority 1999, dated 2003).
# Tests used:
# female ICR mouse = assay: Test on phototoxicity (ear erythema after UV exposure); type: in vivo; conditions: 40 mg/kg/10 mL intravenous, UV 320 to 400 nm for 4 hours; for Phototoxicity average score (ears): 0 point no abnormality to 3 points heavy erythema or edema
# Description: (2) Test on Phototoxicity
# The phototoxicity was tested in accordance with the following method.
# After intravenous administration (40 mg/kg/10 mL) of each of the test compounds to a female ICR mouse (5-6 week old), the mouse was exposed to ultraviolet rays (320 to 400 nm, 1.8 mW/cm^2/sec) for 4 hours.
# no abnormality (0 point); slight erythema (1 point); medium erythema (2 points); and heavy erythema or edema (3 points)
# P. aeruginosa IFO3445 = assay: Test on antibacterial action (MIC, standard method of Japan Society of Chemotherapy); type: cell-based; conditions: for MIC: Pseudomonas aeruginosa, read-out: minimum growth inhibitory concentration (MIC)
# Description: (§1) (1) Test on Antibacterial Action
# (§2) In accordance with the standard method established by Japan Society of Chemotherapy (CHEMOTHERAPY, 29(1),76(1981)), the minimum growth inhibitory concentration (MIC: μg/mL) was measured.
# B. subtilis ATCC6633 = assay: as above; type: cell-based; conditions: for MIC: Bacillus subtilis, read-out: minimum growth inhibitory concentration (MIC)
# Description: as §1, §2
# K. peumoniae KC-1 = assay: as above; type: cell-based; conditions: for MIC: read-out: minimum growth inhibitory concentration (MIC)
# Description: as §1, §2
# MRSA W200 = assay: as above; type: cell-based; conditions: for MIC: Staphylococcus aureus, read-out: minimum growth inhibitory concentration (MIC)
# Description: as §1, §2
# E. coli NIHJ-JC2 = assay: as above; type: cell-based; conditions: for MIC: Escherichia coli, NIHJJC2, read-out: minimum growth inhibitory concentration (MIC)
# Description: as §1, §2
# S. aureus 209P = assay: as above; type: cell-based; conditions: for MIC: Staphylococcus aureus, read-out: minimum growth inhibitory concentration (MIC)
# Description: as §1, §2
# S. epidermidis IFO12293 = assay: as above; type: cell-based; conditions: for MIC: Staphylococcus epidermidis, read-out: minimum growth inhibitory concentration (MIC)
# Description: as §1, §2
# S. aureus Smith = assay: as above; type: cell-based; conditions: for MIC: Staphylococcus aureus, read-out: minimum growth inhibitory concentration (MIC)
# Description: as §1, §2
# [1] = Test on photostability (UV spectra after UVA exposure of solution); type: physicochemical; conditions: solution in 0.08% NaOH diluted 100-fold with PBS(-); UVA (black light) up to 20 minutes; UV spectra 190 to 400 nm
# Description: (2) Test on Photostability
# The test on photostability was made in accordance with the following method.
# With 0.08% NaOH, 1 mg/mL of the test compound was prepared. The resulting solution was diluted 100-fold with PBS(−). Into the wells of a 24-well plate, 1.5 ml portions of the diluted solution were poured, respectively. Just after the solution was exposed to UVA under an UV light (black light, product of Toshiba Corporation) for 0, 2, 5, 10 and 20 minutes, UV spectra within a range of 190 to 400 nm were measured (“UV-240”, product of Shimadzu Corporation).
MIC (P. aeruginosa IFO3445) [µg/mL],MIC (B. subtilis ATCC6633) [µg/mL],MIC (K. peumoniae KC-1) [µg/mL],MIC (MRSA W200) [µg/mL],MIC (E. coli NIHJ-JC2) [µg/mL],MIC (S. aureus 209P) [µg/mL],MIC (S. epidermidis IFO12293) [µg/mL],MIC (S. aureus Smith) [µg/mL],minimum growth inhibitory concentration (MIC) (P. aeruginosa IFO3445) [µg/mL],minimum growth inhibitory concentration (MIC) (B. subtilis ATCC6633) [µg/mL],minimum growth inhibitory concentration (MIC) (K. peumoniae KC-1) [µg/mL],minimum growth inhibitory concentration (MIC) (MRSA W200) [µg/mL],minimum growth inhibitory concentration (MIC) (E. coli NIHJ-JC2) [µg/mL],minimum growth inhibitory concentration (MIC) (S. aureus 209P) [µg/mL],SMILES,Phototoxicity frequency (female ICR mouse; 0 hour after exposure),Phototoxicity average score (ears) (female ICR mouse; 0 hour after exposure),Phototoxicity frequency (female ICR mouse; 24 hours after exposure),Phototoxicity average score (ears) (female ICR mouse; 24 hours after exposure),Phototoxicity frequency (female ICR mouse; 48 hours after exposure),Phototoxicity average score (ears) (female ICR mouse; 48 hours after exposure),also measured
–,–,–,–,–,–,–,–,–,–,–,–,–,–,"NC1CCN(c2nc3c(cc2F)c(=O)c(C(=O)O)cn3-c2ccc(F)cc2F)C1 (racemic) [Tosufloxacin, (±)-7-(3-amino-1-pyrrolidinyl)-6-fluoro-1-(2,4-difluorophenyl)-1,4-dihydro-4-oxo-1,8-naphthyridine-3-carboxylic acid]",4/5,1.8,4/5,0.8,1/5,0.2,–
0.39,0.05,0.025,0.78,0.013,0.2,0.78,0.2,–,–,–,–,–,–,"O=C(O)c1cn(C2CC2)c2cc(N3CCNCC3)c(F)cc2c1=O [Ciprofloxacin, 1-cyclopropyl-6-fluoro-7-(1-piperazinyl)-1,4-dihydro-4-oxoquinoline-3-carboxylic acid]",–,–,–,–,–,–,–
–,–,–,–,–,–,–,–,0.39,0.05,0.05,0.006,0.05,0.006,"Nc1nc(-n2cc(C(=O)O)c(=O)c3cc(F)c(N4CC(O)C4)c(Cl)c32)c(F)cc1F.OC1CNC1 [Comparative compound 1, 1-(6-amino-3,5-difluoropyridin-2-yl)-8-chloro-6-fluoro-7-(3-hydroxyazetidin-1-yl)-1,4-dihydro-4-oxoquinoline-3-carboxylic acid.3-hydroxyazetidine salt]",0/4,0,0/4,0,0/4,0,minimum growth inhibitory concentration (MIC) (S. epidermidis IFO12293): 0.013 µg/mL; minimum growth inhibitory concentration (MIC) (S. aureus Smith): 0.003 µg/mL
–,–,–,–,–,–,–,–,0.39,0.025,0.10,0.025,0.10,0.013,"Nc1nc(-n2cc(C(=O)O)c(=O)c3cc(F)c(N4CC(O)C4)c(F)c32)c(F)cc1F [Comparative compound 2, 1-(6-amino-3,5-difluoropyridin-2-yl)-6,8-difluoro-7-(3-hydroxyzetidin-1-yl)-1,4-dihydro-4-oxoquinoline-3-carboxylic acid]",0/4,0,0/4,0,0/4,0,minimum growth inhibitory concentration (MIC) (S. epidermidis IFO12293): 0.050 µg/mL; minimum growth inhibitory concentration (MIC) (S. aureus Smith): 0.006 µg/mL
0.39,0.025,0.05,0.013,0.05,0.006,0.013,< 0.003,–,–,–,–,–,–,"Cc1c(N2CC(O)C2)c(F)cc2c(=O)c(C(=O)O)cn(-c3nc(N)c(F)cc3F)c12 [Compound 1, 1-(6-amino-3,5-difluoropyridin-2-yl)-6-fluoro-7-(3-hydroxyazetidin-1-yl)-8-methyl-1,4-dihydro-4-oxoquinoline-3-carboxylic acid]",0/4,0,0/4,0,0/4,0,Photostability: decomposition by exposure to ultraviolet rays [1]: hardly decomposed
0.78,0.1,0.05,0.39,0.05,0.2,0.39,0.1,–,–,–,–,–,–,"C[C@H]1COc2c(N3CCN(C)CC3)c(F)cc3c(=O)c(C(=O)O)cn1c23 [Levofloxacin, S-(−)-9-fluoro-2,3-dihydro-3-methyl-10-(4-methyl-1-piperazinyl)-7-oxo-7H-pyrido[1,2,3-de][1,4]-benzoxazine-6-carboxylic acid]",–,–,–,–,–,–,–
